According to PubChem BioAssay AID248 (DTP/NCI, 2004):
Values joined by “and” are separate entries in the source; they are usually repeats but may differ in a detail not shown here. Identical values can stand only once. Inconclusive results and toxic doses are left out. Rule as the data show it: active = T/C of 150% or more; inactive = T/C below 125%.

Tested on: L1210 leukemia ip in BDF1 mice, survival T/C
Test: NCI In Vivo Anticancer Drug Screen. Data for tumor model L1210 Leukemia (intraperitoneal) in B6D2F1 (BDF1) mice
Conditions: endpoint: mean survival time, higher = longer survival
Outline: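 Value reflects the ratio of survival in compound-treated mice to survival in vehicle-treated controls, with both groups carrying the same transplanted tumor.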

[1] = dose: 100.0 mg/kg/injection, schedule: Q04DX002 (ip), vehicle: Klucel (hydroxypropylcellulose) (HPC)
[2] = dose: 200.0 mg/kg/injection, schedule: Q04DX002 (ip), vehicle: Klucel (hydroxypropylcellulose) (HPC)
[3] = dose: 400.0 mg/kg/injection, schedule: Q04DX002 (ip), vehicle: Klucel (hydroxypropylcellulose) (HPC)
[4] = dose: 100.0 mg/kg/injection, schedule: Q01DX009 (ip), vehicle: saline
[5] = dose: 100.0 mg/kg/injection, schedule: Q04DX003 (ip), vehicle: saline
[6] = dose: 200.0 mg/kg/injection, schedule: Q01DX009 (ip), vehicle: saline
[7] = dose: 200.0 mg/kg/injection, schedule: Q04DX003 (ip), vehicle: saline
[8] = dose: 400.0 mg/kg/injection, schedule: Q04DX003 (ip), vehicle: saline
[9] = dose: 50.0 mg/kg/injection, schedule: Q01DX001 (ip), vehicle: saline
[10] = dose: 100.0 mg/kg/injection, schedule: Q01DX001 (ip), vehicle: saline
[11] = dose: 200.0 mg/kg/injection, schedule: Q01DX001 (ip), vehicle: saline
[12] = dose: 400.0 mg/kg/injection, schedule: Q01DX001 (ip), vehicle: saline
[13] = dose: 100.0 mg/kg/injection, schedule: Q04DX003 (ip), vehicle: Klucel (hydroxypropylcellulose) (HPC)
[14] = dose: 200.0 mg/kg/injection, schedule: Q04DX003 (ip), vehicle: Klucel (hydroxypropylcellulose) (HPC)
[15] = dose: 400.0 mg/kg/injection, schedule: Q04DX003 (ip), vehicle: Klucel (hydroxypropylcellulose) (HPC)
[16] = dose: 100.0 mg/kg/injection, schedule: Q01DX009 (ip), vehicle: Klucel (hydroxypropylcellulose) (HPC)
[17] = dose: 100.0 mg/kg/injection, schedule: Q04DX003 (ip), vehicle: saline with Tween-80
[18] = dose: 200.0 mg/kg/injection, schedule: Q01DX009 (ip), vehicle: Klucel (hydroxypropylcellulose) (HPC)
[19] = dose: 200.0 mg/kg/injection, schedule: Q04DX003 (ip), vehicle: saline with Tween-80
[20] = dose: 400.0 mg/kg/injection, schedule: Q04DX003 (ip), vehicle: saline with Tween-80
[21] = dose: 400.0 mg/kg/injection, schedule: Q01DX009 (ip), vehicle: Klucel (hydroxypropylcellulose) (HPC)
[22] = dose: 100.0 mg/kg/injection, schedule: Q01DX009 (ip), vehicle: saline with Tween-80
[23] = dose: 200.0 mg/kg/injection, schedule: Q01DX009 (ip), vehicle: saline with Tween-80
[24] = dose: 400.0 mg/kg/injection, schedule: Q01DX009 (ip), vehicle: saline with Tween-80

Measured: T/C

CCOC(=O)CNc1ccc(F)c(Cl)c1
inactive: [1] 106 % of control and 108 % of control | [2] 98 % of control and 112 % of control | [3] 102 % of control | dose: 600.0 mg/kg/injection, schedule: Q04DX002 (ip), vehicle: Klucel (hydroxypropylcellulose) (HPC) 98 % of control

CCOC(=O)/C=C/c1c[nH]c(=O)[nH]c1=O
inactive: [4] 109 % of control | [5] 103 % of control | [6] 111 % of control | [7] 97 % of control | dose: 400.0 mg/kg/injection, schedule: Q01DX009 (ip), vehicle: saline 105 % of control | [8] 94 % of control

CN(C)Cc1c(Cl)cccc1C(O)c1ccccc1 (stereo not drawn)
inactive: [9] 96 % of control | [10] 106 % of control | [11] 106 % of control | [12] 95 % of control

CC1C[N+](C)(C)CC(C)C1=O (stereo not drawn)
inactive: dose: 12.5 mg/kg/injection, schedule: Q04DX002 (ip), vehicle: saline with Tween-80 96 % of control | dose: 25.0 mg/kg/injection, schedule: Q04DX002 (ip), vehicle: saline with Tween-80 107 % of control | dose: 50.0 mg/kg/injection, schedule: Q04DX002 (ip), vehicle: saline with Tween-80 93 % of control

CC(C)(C)C1=CC(=O)C(Cl)(C(C)(C)C)C(Cl)C1=O (stereo not drawn)
inactive: dose: 100.0 mg/kg/injection, schedule: Q01DX001 (ip), vehicle: saline with Tween-80 97 % of control | dose: 200.0 mg/kg/injection, schedule: Q01DX001 (ip), vehicle: saline with Tween-80 90 % of control

CCCC(CC)C(C(=O)OCC)C1=NC(C)(C)CC(C)O1 (stereo not drawn)
inactive: dose: 100.0 mg/kg/injection, schedule: Q01DX009 (ip), vehicle: saline sonified 98 % of control | dose: 200.0 mg/kg/injection, schedule: Q01DX009 (ip), vehicle: saline sonified 104 % of control | dose: 400.0 mg/kg/injection, schedule: Q01DX009 (ip), vehicle: saline sonified 93 % of control

O=C(O)/C=C\C(=O)NCC1CCC(CNC(=O)/C=C\C(=O)O)CC1 (stereo not drawn)
inactive: [13] 98 % of control | [14] 100 % of control | [15] 102 % of control

O=C(NCCC[P+](c1ccccc1)(c1ccccc1)c1ccccc1)OCc1ccccc1
inactive: dose: 12.5 mg/kg/injection, schedule: Q01DX009 (ip), vehicle: carboxymethylcellulose (CMC) 101 % of control and 120 % of control | dose: 12.5 mg/kg/injection, schedule: Q04DX002 (ip), vehicle: carboxymethylcellulose (CMC) 103 % of control | dose: 25.0 mg/kg/injection, schedule: Q01DX001 (ip), vehicle: carboxymethylcellulose (CMC) 87 % of control and 91 % of control | dose: 25.0 mg/kg/injection, schedule: Q01DX009 (ip), vehicle: carboxymethylcellulose (CMC) 103 % of control | dose: 25.0 mg/kg/injection, schedule: Q04DX002 (ip), vehicle: carboxymethylcellulose (CMC) 100 % of control and 91 % of control | dose: 25.0 mg/kg/injection, schedule: Q04DX003 (ip), vehicle: carboxymethylcellulose (CMC) 97 % of control and 98 % of control | dose: 50.0 mg/kg/injection, schedule: Q01DX001 (ip), vehicle: carboxymethylcellulose (CMC) 95 % of control and 104 % of control | dose: 50.0 mg/kg/injection, schedule: Q04DX002 (ip), vehicle: carboxymethylcellulose (CMC) 100 % of control | dose: 50.0 mg/kg/injection, schedule: Q04DX003 (ip), vehicle: carboxymethylcellulose (CMC) 97 % of control and 100 % of control

CC(=O)c1c(O)c(Br)c(C)oc1=O (tested in a mixture with another compound)
inactive: dose: 6.25 mg/kg/injection, schedule: Q01DX009 (ip), vehicle: saline with Tween-80 89 % of control | dose: 12.5 mg/kg/injection, schedule: Q01DX009 (ip), vehicle: saline with Tween-80 100 % of control | dose: 25.0 mg/kg/injection, schedule: Q01DX009 (ip), vehicle: saline with Tween-80 93 % of control

CC1CCC(C(C)C)C(N(C)Cc2cc(Br)cc(Br)c2O)C1 (stereo not drawn)
inactive: dose: 50.0 mg/kg/injection, schedule: Q01DX009 (ip), vehicle: Klucel (hydroxypropylcellulose) (HPC) 102 % of control | [16] 107 % of control | [17] 104 % of control | [18] 105 % of control | [19] 104 % of control | [20] 98 % of control

Cc1cc(=O)[nH]c(N/N=C/c2c(O)ccc3ccccc23)n1
inactive: [10] 96 % of control | [11] 94 % of control | [12] 89 % of control

C1CCC(CCCCC2CCC(CCCCC3CCCCC3)CC2)CC1 (stereo not drawn)
inactive: [17] 91 % of control | [19] 93 % of control | [20] 96 % of control

Cc1ccc([N+](=O)[O-])cc1NC(=O)Nc1ccc([N+](=O)[O-])cc1
inactive: [16] 90 % of control | [18] 90 % of control | [21] 98 % of control

OC(c1ccccc1)(c1ccccc1)c1ccc(F)cc1
inactive: [22] 102 % of control | [17] 92 % of control | [23] 101 % of control | [19] 100 % of control | [24] 89 % of control | [20] 87 % of control

CCCCC(=O)N/N=C/c1ccc(Cl)cc1Cl
inactive: [10] 91 % of control

CC(=O)Nc1ccc(OC(=O)Nc2ccccc2Cl)cc1
inactive: [16] 101 % of control | [13] 96 % of control | [14] 95 % of control | [21] 101 % of control | [15] 95 % of control

C/C(=N/NC(=O)C1CCCO1)c1ccc(C)cc1 (stereo not drawn)
inactive: dose: 12.5 mg/kg/injection, schedule: Q01DX009 (ip), vehicle: Klucel (hydroxypropylcellulose) (HPC) 104 % of control | dose: 25.0 mg/kg/injection, schedule: Q01DX009 (ip), vehicle: Klucel (hydroxypropylcellulose) (HPC) 102 % of control

O=C(Cc1cc2c(cc1[N+](=O)[O-])OCO2)c1c[nH]c2ccc(Br)cc12
inactive: [9] 98 % of control | [10] 92 % of control | [11] 98 % of control | [12] 95 % of control

Nc1nc2nsnc2nc1N
inactive: dose: 3.12 mg/kg/injection, schedule: Q01DX009 (ip), vehicle: water 86 % of control | dose: 6.25 mg/kg/injection, schedule: Q01DX009 (ip), vehicle: water 93 % of control | dose: 12.5 mg/kg/injection, schedule: Q01DX009 (ip), vehicle: water 90 % of control | dose: 25.0 mg/kg/injection, schedule: Q01DX009 (ip), vehicle: water 98 % of control and 106 % of control | dose: 50.0 mg/kg/injection, schedule: Q01DX009 (ip), vehicle: water 97 % of control and 91 % of control

NC(Cc1ccc(O)c(I)c1)C(=O)O (stereo not drawn)
inactive: [4] 96 % of control | [5] 101 % of control | [6] 98 % of control | [7] 93 % of control | [8] 100 % of control

CC(C)OC(=O)Nc1cccc(NC(=O)OCCCl)c1
inactive: dose: 100.0 mg/kg/injection, schedule: Q04DX002 (ip), vehicle: saline with Tween-80 97 % of control | dose: 200.0 mg/kg/injection, schedule: Q04DX002 (ip), vehicle: saline with Tween-80 101 % of control | dose: 400.0 mg/kg/injection, schedule: Q04DX002 (ip), vehicle: saline with Tween-80 97 % of control

COc1ccc(C(=O)N/N=C/c2cc(OC)ccc2O)cc1
inactive: [1] 110 % of control | [2] 104 % of control | [3] 100 % of control

C1=Cc2cccc3c2N(C1)CCC3 (tested in a mixture with another compound)
inactive: [22] 103 % of control | [17] 109 % of control | [23] 107 % of control | [19] 93 % of control | [24] 95 % of control | [20] 98 % of control

CC(=O)NC1C(O)C(NC(C)=O)C(OC(C)=O)C(OC(C)=O)C1OC(C)=O (stereo not drawn)
inactive: [17] 95 % of control | [19] 101 % of control | [20] 94 % of control

Cc1ccccc1CC#N
inactive: dose: 6.25 mg/kg/injection, schedule: Q01DX009 (ip), vehicle: saline 108 % of control | dose: 12.5 mg/kg/injection, schedule: Q01DX009 (ip), vehicle: saline 108 % of control | dose: 25.0 mg/kg/injection, schedule: Q01DX009 (ip), vehicle: saline 101 % of control
